From patent US20260242391A1 (priority 2023, published 2026)

Assays:
HL-60 = HL-60 differentiation potency; assay type: cell-based; conditions: Homo sapiens
in vitro = conditions: human

## Cc1cc(CO[C@H]2O[C@@H]3O[C@@]4(C)CC[C@H]5[C@H](C)CC[C@@H]([C@H]2C)[C@@]35OO4)ccc1C(=O)O [Compound 41, 2-methyl-4-((((3R,5aS,6R, 8aS,9R,10S,12R, 12aR)-3,6,9-trimethyldeca-hydro-12H-3,12-epoxy[1,2]dioxepino[4,3-i]isochromen-10-yl)oxy)methyl) benzoic acid]
HL-60
  EC50: 735 nM
In vitro
  IC50: > 20000 nM

## C[C@H]1[C@@H](OCc2ccc(C(=O)O)nc2)O[C@@H]2O[C@@]3(C)CC[C@H]4[C@H](C)CC[C@@H]1[C@@]24OO3 [Compound 13, 5-((((3R,5aS,6R, 8aS,9R,10S,12R, 12aR)-3,6,9-trimethyldeca-hydro-12H-3,12-epoxy[1,2]dioxepino[4,3-i]isochromen-10-yl)oxy)methyl) picolinic acid]
HL-60
  EC50: 88.9 nM
In vitro
  IC50: 1420 nM

## C[C@H]1[C@@H](OCc2cc(Cl)cc(C(=O)O)c2)O[C@@H]2O[C@@]3(C)CC[C@H]4[C@H](C)CC[C@@H]1[C@@]24OO3 [Compound 178, 3-chloro-5-((((3R,5aS,6R,8aS, 9R,10S,12R, 12aR)-3,6,9-trimethyldeca-hydro-12H-3,12-epoxy[1,2]dioxepino[4,3-i]isochromen-10-yl)oxy)methyl) benzoic acid]
HL-60
  EC50: 243 nM
In vitro
  IC50: 4000 nM

## C[C@H]1[C@H](N2CCCCC2)O[C@@H]2O[C@@]3(C)CC[C@H]4[C@H](C)CC[C@@H]1[C@@]24OO3 [Compound 63, 1-((3R,5aS,6R,8aS, 9R,10R,12R, 12aR)-3,6,9-trimethyldeca-hydro-12H-3,12-epoxy[1,2]dioxepino[4,3-i]isochromen-10-yl)piperidine]
HL-60
  EC50: > 20000 nM
In vitro
  IC50: > 20000 nM

## C[C@H]1[C@@H](OC[C@H]2C[C@@H](C(=O)O)C[C@@H](C(=O)O)C2)O[C@@H]2O[C@@]3(C)CC[C@H]4[C@H](C)CC[C@@H]1[C@@]24OO3 [Compound 147, (1R,3S,5r)-5-((((3R,5aS,6R,8aS, 9R,10S,12R, 12aR)-3,6,9-trimethyldeca-hydro-12H-3,12-epoxy[1,2]dioxepino[4,3-i]isochromen-10-yl)oxy)methyl) cyclohexane-1,3-dicarboxylic acid]
HL-60
  EC50: > 20000 nM
In vitro
  IC50: > 20000 nM

## C[C@H]1[C@@H](Oc2ccc(C(=O)N3CC(C(=O)O)C3)cc2)O[C@@H]2O[C@@]3(C)CC[C@H]4[C@H](C)CC[C@@H]1[C@@]24OO3 [Compound 149, 1-(4-(((3R,5aS,6R,8aS, 9R,10S,12R, 12aR)-3,6,9-trimethyldeca-hydro-12H-3,12-epoxy[1,2]dioxepino[4,3-i]isochromen-10-yl)oxy)benzoyl) azetidine-3-carboxylic acid]
HL-60
  EC50: 1240 nM
In vitro
  IC50: > 20000 nM

## Cc1cc(C(=O)O)ccc1CO[C@@H]1O[C@@H]2O[C@@]3(C)CC[C@H]4[C@H](C)CC[C@@H]([C@H]1C)[C@@]24OO3 [Compound 44, 3-methyl-4-((((3R,5aS,6R,8aS, 9R,10R,12R, 12aR)-3,6,9-trimethyldeca-hydro-12H-3,12-epoxy[1,2]dioxepino[4,3-i]isochromen-10-yl)oxy)methyl) benzoic acid]
HL-60
  EC50: 1010 nM
In vitro
  IC50: > 20000 nM

## C[C@H]1[C@H](OCc2ccc(C(=O)O)c(F)c2)O[C@@H]2O[C@@]3(C)CC[C@H]4[C@H](C)CC[C@@H]1[C@@]24OO3 [Compound 39, 2-fluoro-4-((((3R,5aS,6R,8aS, 9R,10R,12R, 12aR)-3,6,9-trimethyldeca-hydro-12H-3,12-epoxy[1,2]dioxepino[4,3-i]isochromen-10-yl)oxy)methyl) benzoic acid]
HL-60
  EC50: 631 nM
In vitro
  IC50: > 20000 nM

## C[C@H]1[C@H](N2CCC(C(=O)O)CC2)O[C@@H]2O[C@@]3(C)CC[C@H]4[C@H](C)CC[C@@H]1[C@@]24OO3 [Compound 64, 1-((3R,5aS,6R,8aS, 9R,10R,12R, 12aR)-3,6,9-trimethyldeca-hydro-12H-3,12-epoxy[1,2]dioxepino[4,3-i]isochromen-10-yl)piperidine-4-carboxylic acid]
HL-60
  EC50: > 20000 nM
In vitro
  IC50: > 20000 nM

## C[C@H]1[C@H](OCc2ccc(S(N)(=O)=O)cc2)O[C@@H]2O[C@@]3(C)CC[C@H]4[C@H](C)CC[C@@H]1[C@@]24OO3 [Compound 49, 4-((((3R,5aS,6R,8aS, 9R,10R,12R, 12aR)-3,6,9-trimethyldeca-hydro-12H-3,12-epoxy[1,2]dioxepino[4,3-i]isochromen-10-yl)oxy)methyl) benzene-sulfonamide]
HL-60
  EC50: 2100 nM
In vitro
  IC50: ≥ 20000 nM

## C[C@H]1[C@H](N2CC[C@@H](C(=O)O)C2)O[C@@H]2O[C@@]3(C)CC[C@H]4[C@H](C)CC[C@@H]1[C@@]24OO3 [Compound 69, (R)-1-((3R,5aS,6R,8aS, 9R,10R,12R, 12aR)-3,6,9-trimethyldeca-hydro-12H-3,12-epoxy[1,2]dioxepino[4,3-i]isochromen-10-yl)pyrrolidine-3-carboxylic acid]
HL-60
  EC50: > 20000 nM
In vitro
  IC50: > 20000 nM

## C[C@H]1[C@@H](OCc2ccc(C(=O)O)cc2Cl)O[C@@H]2O[C@@]3(C)CC[C@H]4[C@H](C)CC[C@@H]1[C@@]24OO3 [Compound 119, 3-chloro-4-((((3R,5aS,6R, 8aS,9R,10S,12R, 12aR)-3,6,9-trimethyldeca-hydro-12H-3,12-epoxy[1,2]dioxepino[4,3-i]isochromen-10-yl)oxy)methyl) benzoic acid]
HL-60
  EC50: 110 nM
In vitro
  IC50: > 20000 nM

## C[C@H]1[C@@H](Oc2ccc(C(=O)O)c(F)c2)O[C@H]2O[C@@]3(C)CC[C@H]4[C@H](C)CC[C@@H]1[C@@]24OO3 [Compound 25, 2-fluoro-4-(((3R,5aS,6R,8aS, 9R,10S,12S, 12aR)-3,6,9-trimethyldeca-hydro-12H-3,12-epoxy[1,2]dioxepino[4,3-i]isochromen-10-yl)oxy)benzoic acid]
HL-60
  EC50: 217 nM
In vitro
  IC50: > 20000 nM

## C[C@H]1[C@H](Oc2ccc(CC(=O)O)cc2)O[C@@H]2O[C@@]3(C)CC[C@H]4[C@H](C)CC[C@@H]1[C@@]24OO3 [Compound 12, 2-(4-(((3R,5aS, 6R,8aS,9R,10R, 12R,12aR)-3,6,9-trimethyldeca-hydro-12H-3,12-epoxy[1,2]dioxepino[4,3-i]isochromen-10-yl)oxy)phenyl) acetic acid]
HL-60
  EC50: 92.4 nM
In vitro
  IC50: > 20000 nM

## C[C@H]1[C@H](N2CC(S(C)(=O)=O)C2)O[C@@H]2O[C@@]3(C)CC[C@H]4[C@H](C)CC[C@@H]1[C@@]24OO3 [Compound 4, 3-(methylsulfonyl)-1-((3R,5aS,6R, 8aS,9R,10R, 12R,12aR)-3,6,9-trimethyldeca-hydro-1H-3,12-epoxy[1,2]dioxepino[4,3-i]isochromen-10-yl)azetidine]
HL-60
  EC50: 42.8 nM
In vitro
  IC50: 101 nM

## C[C@H]1[C@@H](OCc2ccc(C(=O)NO)cc2)O[C@@H]2O[C@@]3(C)CC[C@H]4[C@H](C)CC[C@@H]1[C@@]24OO3 [Compound 5, N-hydroxy-4-((((3R,5aS,6R,8aS, 9R,10S,12R, 12aR)-3,6,9-trimethyldeca-hydro-12H-3,12-epoxy[1,2]dioxepino[4,3-i]isochromen-10-yl)oxy)methyl) benzamide]
HL-60
  EC50: 52.2 nM
In vitro
  IC50: 2880 nM

## C[C@H]1[C@@H](OCc2cc(C(=O)O)ccc2Cl)O[C@@H]2O[C@@]3(C)CC[C@H]4[C@H](C)CC[C@@H]1[C@@]24OO3 [Compound 167, 4-chloro-3-((((3R,5aS,6R,8aS, 9R,10S,12R, 12aR)-3,6,9-trimethyldeca-hydro-12H-3,12-epoxy[1,2]dioxepino[4,3-i]isochromen-10-yl)oxy)methyl) benzoic acid]
HL-60
  EC50: 132 nM
In vitro
  IC50: 10500 nM

## C[C@H]1[C@@H](OCC(=O)N2C[C@H]3[C@@H]([C@H]2C(=O)O)C3(C)C)O[C@@H]2O[C@@]3(C)CC[C@H]4[C@H](C)CC[C@@H]1[C@@]24OO3 [Compound 151, (1R,2S,5S)-6,6-dimethyl-3-(2-(((3R,5aS,6R,8aS, 9R,10S,12R, 12aR)-3,6,9-trimethyldeca-hydro-12H-3,12-epoxy[1,2]dioxepino[4,3-i]isochromen-10-yl)oxy)acetyl)-3-azabicyclo[3.1.0] hexane-2-carboxylic acid]
HL-60
  EC50: 1570 nM
In vitro
  IC50: > 20000 nM

## C[C@H]1[C@H](NCCCS(C)(=O)=O)O[C@@H]2O[C@@]3(C)CC[C@H]4[C@H](C)CC[C@@H]1[C@@]24OO3 [Compound 100, (3R,5aS,6R,8aS, 9R,10R,12R, 12aR)-3,6,9-trimethyl-N-(3-(methylsulfonyl)propyl)deca-hydro-12H-3,12-epoxy[1,2] dioxepino[4,3-i] isochromen-10-amine]
HL-60
  EC50: 498 nM
In vitro
  IC50: 535 nM

## C[C@H]1[C@H](OC[C@H]2CC[C@H](C(=O)O)CC2)O[C@@H]2O[C@@]3(C)CC[C@H]4[C@H](C)CC[C@@H]1[C@@]24OO3 [Compound 40, (1R,4r)-4-((((3R,5aS,6R,8aS, 9R,10R,12R, 12aR)-3,6,9-trimethyldeca-hydro-12H-3,12-epoxy[1,2]dioxepino[4,3-i]isochromen-10-yl)oxy)methyl) cyclohexane-1-carboxylic acid]
HL-60
  EC50: 680 nM
In vitro
  IC50: > 20000 nM

## C[C@H]1[C@@H](OCc2ccc3c(c2)OC(F)(F)O3)O[C@@H]2O[C@@]3(C)CC[C@H]4[C@H](C)CC[C@@H]1[C@@]24OO3 [Compound 1, (3R,5aS,6R,8aS, 9R,10S,12R, 12aR)-10-((2,2-difluorobenzo[d] [1,3]dioxol-5-yl)methoxy)-3,6,9-trimethyldeca-hydro-12H-3,12-epoxy[1,2] dioxepino[4,3-i]isochromene]
HL-60
  EC50: 11.1 nM
In vitro
  IC50: 10.6 nM

## C[C@H]1[C@H](NCCS(=O)(=O)N(C)C)O[C@@H]2O[C@@]3(C)CC[C@H]4[C@H](C)CC[C@@H]1[C@@]24OO3 [Compound 59, N,N-dimethyl-2-(((3R,5aS,6R, 8aS,9R,10R,12R, 12aR)-3,6,9-trimethyldeca-hydro-12H-3,12-epoxy[1,2]dioxepino[4,3-i]isochromen-10-yl)amino) ethane-1-sulfonamide]
HL-60
  EC50: 9630 nM
In vitro
  IC50: 11000 nM

## C[C@H]1[C@@H](OCCS(C)(=O)=O)O[C@@H]2O[C@@]3(C)CC[C@H]4[C@H](C)CC[C@@H]1[C@@]24OO3 [Compound 90, (3R,5aS,6R,8aS, 9R,10S,12R, 12aR)-3,6,9-trimethyl-10-(2-(methylsulfonyl)ethoxy)deca-hydro-12H-3,12-epoxy[1,2] dioxepino[4,3-i] isochromene]
HL-60
  EC50: > 20000 nM
In vitro
  IC50: > 20000 nM
